Data published in patent US20190358247A1 (The Medical College of Wisconsin, Inc., priority 2016, published 2019).

Columns and labels:
mitochondrial complex I = mitochondrial complex I (Homo sapiens, UniProt O75251+O75306+P03886); assay: Complex I oxygen consumption (pyruvate/malate) in permeabilized cells, Seahorse XF96; format: cell-based; set-up: IC50, complex I oxygen consumption; other: permeabilized MiaPaCa-2, added acutely
Experimental: Respiratory enzyme activity in intact and permeabilized cells. The mitochondrial function in intact and permeabilized pancreatic cancer cells was measured using a Seahorse XF96 Extracellular Flux Analyzer (Seahorse Bioscience, North Billerica, Mass., USA). Unless specified otherwise, assays in intact cells were performed as previously described. Measurement of mitochondrial respiratory complexes in permeabilized cells was performed according to the manufacturer's instructions (Seahorse Bioscience). Briefly, intact cells were permeabilized using 1 nM Plasma Membrane Permeabilizer (PMP, Seahorse Bioscience) immediately before oxygen consumption rate (OCR) measurement by XF96. The oxygen consumption derived from mitochondrial complex I or complex II activity was measured by providing different substrates to mitochondria, e.g., pyruvate/malate for complex I and succinate for complex II activity. Rotenone, malonate and antimycin A were used as specific inhibitors of mitochondrial complex I, II and III activities, respectively.
The oxygen consumption rate was measured using the permeabilized MiaPaCa-2 cells in MAS buffer supplemented with pyruvate. The use of permeabilized cells avoids differences in cellular uptake of compounds. […] We tested the effect of pretreating cells with Mito-Met10 or Met using the permeabilized model. MiaPaCa-2 cells were treated with Met and Mito-Met10 for 24 h and the oxygen consumption studies were performed in these cells after permeabilization.

MCF-10A cells = assay: Radiosensitization, clonogenic survival after X-radiation, normal cells; format: cell-based; settings: 1 μM, 24 h pretreatment
Experimental: Radiation experiments. […] The cells were then treated with X-radiation at a dose of 0, 2, 4, and 6 Gy. The control cells were treated with the same concentration of vehicle (0.1% DMSO) where appropriate. After irradiation, cells were suspended and seeded at various densities (100-8,000 cells per well) in 6-well plates for clonogenic assay as described above. The plates were kept within the incubator and media changed every 3-4 days for 2 weeks. Wells with 10-50 sufficiently large clones were chosen for calculating the cell survival fractions.
Effect of Mito-Met and Met on PDAC radiosensitivity. Both control cells and cells were pretreated for 24 h with 1 mM Met or Mito-Met (1 μM) prior to X-radiation. Cell survival was measured by a clonogenic assay.

[1] = Tissue accumulation in FC1242-luc orthotopic mice; format: in vivo; settings: 1 mg/kg daily for two weeks; liver, kidney, spleen, tumor
Experimental: FIG. 19. Tissue accumulation of Mito-Met in in vivo FC1242-luc orthotopic mouse model. FC1242-luc orthotopic mice treated with Mito-Met10 (1 mg/kg) daily for 2 weeks. Tissue harvesting and extractions were performed 3 days after the last treatment. Quantitative data on concentrations of Mito-Met after normalization to tissue wet weight are represented as mean±SD, n=5.

Chain of mitochondrial complex I (P03886 whole entry): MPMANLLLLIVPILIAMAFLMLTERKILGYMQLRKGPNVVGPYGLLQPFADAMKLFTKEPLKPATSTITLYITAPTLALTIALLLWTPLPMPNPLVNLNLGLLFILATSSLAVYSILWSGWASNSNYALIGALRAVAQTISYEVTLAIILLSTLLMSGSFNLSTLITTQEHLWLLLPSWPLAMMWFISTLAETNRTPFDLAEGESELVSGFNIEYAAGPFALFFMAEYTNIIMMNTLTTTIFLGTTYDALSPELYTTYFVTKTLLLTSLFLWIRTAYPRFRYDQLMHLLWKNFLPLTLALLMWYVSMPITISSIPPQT
Chain of mitochondrial complex I (O75251 39-213): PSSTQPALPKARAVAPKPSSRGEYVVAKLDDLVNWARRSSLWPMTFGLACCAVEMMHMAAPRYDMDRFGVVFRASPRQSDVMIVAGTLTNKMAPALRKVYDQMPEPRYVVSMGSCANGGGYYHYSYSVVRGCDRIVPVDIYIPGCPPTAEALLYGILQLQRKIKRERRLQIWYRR
Chain of mitochondrial complex I (P03897 whole entry, further chain): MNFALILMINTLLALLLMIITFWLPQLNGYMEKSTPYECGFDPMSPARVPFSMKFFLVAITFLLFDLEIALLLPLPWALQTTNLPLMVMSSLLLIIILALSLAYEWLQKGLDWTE
Chain of mitochondrial complex I (O75306 34-463): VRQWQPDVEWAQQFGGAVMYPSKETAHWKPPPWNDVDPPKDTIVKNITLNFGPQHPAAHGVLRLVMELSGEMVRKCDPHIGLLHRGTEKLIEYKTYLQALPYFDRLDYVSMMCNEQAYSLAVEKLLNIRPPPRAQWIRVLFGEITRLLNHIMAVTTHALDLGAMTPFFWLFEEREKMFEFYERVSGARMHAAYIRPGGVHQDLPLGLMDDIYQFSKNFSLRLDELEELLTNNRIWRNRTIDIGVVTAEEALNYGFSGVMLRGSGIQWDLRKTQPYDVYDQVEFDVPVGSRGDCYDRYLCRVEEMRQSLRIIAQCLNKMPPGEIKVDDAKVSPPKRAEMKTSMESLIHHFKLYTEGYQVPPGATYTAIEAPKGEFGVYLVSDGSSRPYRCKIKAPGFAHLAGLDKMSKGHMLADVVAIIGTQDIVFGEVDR
Chain of mitochondrial complex I (O75489 37-264, further chain): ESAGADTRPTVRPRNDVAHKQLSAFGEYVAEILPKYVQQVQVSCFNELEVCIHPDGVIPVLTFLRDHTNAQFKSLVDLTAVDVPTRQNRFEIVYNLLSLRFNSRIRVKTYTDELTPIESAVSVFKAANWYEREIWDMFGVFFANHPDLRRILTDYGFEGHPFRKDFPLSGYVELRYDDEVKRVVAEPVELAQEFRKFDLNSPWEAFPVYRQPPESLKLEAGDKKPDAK

With `Br.N=C(N)NC(=N)NCCCCCCCCCC[P+](c1ccccc1)(c1ccccc1)c1ccccc1` [Mito-Met10] the “concentration at which OCR was inhibited” value (mitochondrial complex I; permeabilized MiaPaCa-2, added acutely) was 10 µM, the IC50 (mitochondrial complex I; read-out: IC50, complex I oxygen consumption, permeabilized MiaPaCa-2, compound added acutely (FIG. 20C)) was 2000 nM and the “radiosensitivity in normal cells” value (MCF-10A cells) was “no radiosensitivity was observed”. For the same compound, the tissue accumulation [1] was “increased accumulation”.
